Data published in patent US4769321A, “Assay method and reagent therefor” (priority 1979, dated 1988).

Legend:
[1] = tested on: PK(I); test: Detection of ATP by activation of the PFK/PK(I) feedback system (Example B2); assay type: biochemical, E. coli; settings: 0.0001 to 0.5 mM ATP; 340 nm, 30° C.
Method: Cultures of E. coli strain K1-1 were grown on a synthetic medium containing essential nutrients and glycerol as carbon source, until well into their logarithmic phase of growth. The cells were harvested, washed by centrifugation and resuspended in a sonication buffer of 5 mM phosphate, 1 mM EDTA, 2 mM mercaptoethanol pH 7.5 in an amount of approximately 20 mg dry weight per ml. They were then disrupted with an MSE ultrasonic disintegrator for 4 minutes (in 30 seconds bursts while cooled). The resulting crude extract was separated from cell debris by centrifugation. As well as containing pyruvate kinase (I) this extract also contained an interfering isoenzyme with different properties, and also a number of other interfering enzyme activities. It was found, however, that it was possible to remove these contaminants by heating the extract to 55° C. for 20-60, for example 45, minutes. This is the source of pyruvate kinase (I) referred to in the following examples.
In this example the same basic system described in Example 1 was again used, but instead of the system being used to detect an enzyme capable of giving rise to ATP, the pre-existing ATP in a solution was assayed, using a PK(I) extract which had been prepared by heating at 55° C. for 60 minutes.
As in the previous example, the assays were carried out in quartz spectrophotometer cuvettes for use with 1.0 ml assay mixtures. […]

[2] = tested on: creatine kinase; test: Creatine phosphate detection with creatine kinase as reagent (Example B7); assay type: biochemical, bovine; settings: for O.D. Units (340 nm) change/minute at 1.5 minutes: CK 0.05 U, 30° C., nil CP gave 0.0011
Method: Mixtures were made up in 10 mM dimethyl-glutamate buffer at pH 6.8 and containing 5 mM MgCl2 and 0.1% in bovine serum albumin as follows:
In each case the components were combined from stock solutions in a quartz cuvette of 1 ml capacity, mixed and immediately monitored for NADH oxidation by following their optical density at 340 nm and 30° C.

[3] = tested on: E. coli Type I pyruvate kinase (PK); settings: in the presence of certain amounts of phosphoenolpyruvate; cited from earlier work
[4] = tested on: alkaline phosphatase; test: Detection of alkaline phosphatase by antibody-coated wells and NAD cycle (Example A1); assay type: biochemical, bovine (calf); settings: ten-fold dilutions 1:1000 to 1:10^7; pH 9.3; room temperature
Method: The alkaline phosphatase used in this example is as obtainable from the Sigma Chemical Co (London) Ltd Type VII from bovine (calf) intestine catalogue number P4502 (1981). Antibody is raised against this material by any of the standard procedures. For example 0.5 mg of the alkaline phosphatase suspension is taken and made to 1.0 ml with distilled water and shaken gently. One ml of Freund's complete adjuvant is then added and the mixture homogenised through a connector between two hypodermic syringes back and forth until a stable water-in-oil emulsion is produced. Approximately 1 ml of the emulsion is then injected intramuscularly into each hindquarter of a rabbit. The injections are repeated two and four weeks later with the same amount of alkaline phosphatase but without the added Freund's adjuvant. Blood is then taken from the immunised animal two weeks after the last injection and the immune-serum taken off after clotting has taken place. An IgG fraction of the serum is then obtained by the standard procedure of DEAE Cellulose Chromatography set out in Methods in Immunology by D. H. Cambell, J. S. Garvey, N. E. Cremer and D. H. Sussdorf, 2nd Edition (1970) pages 193-197, published by W. A. Benjamin, Reading Mass. […] The plates are now ready for use. […]

Nc1ncnc2c1ncn2[C@@H]1O[C@H](COP(=O)(O)OP(=O)(O)OP(=O)(O)O)[C@@H](O)[C@H]1O [ATP, adenosine 5'-triphosphate]
initiation and rate of NADH oxidation vs ATP concentration [1]: The higher concentrations of ATP gave rise to an earlier initiation of observable NADH oxidation and subsequently increased in their rate faster than the lower concentrations

CN(CC(=O)O)C(=N)NP(=O)(O)O [CP, creatine phosphate]
dependence of the system on creatine phosphate [2]: dependent on the presence of creatine phosphate and the concentration thereof | O.D. Units (340 nm) change/minute at 1.5 minutes ([2]; CP concentration 0.4 mM): 0.0070 O.D. Units (340 nm) change/min | O.D. Units (340 nm) change/minute at 1.5 minutes ([2]; CP concentration 4.0 mM): 0.0118 O.D. Units (340 nm) change/min

O=C(COP(=O)(O)O)[C@@H](O)[C@H](O)[C@H](O)COP(=O)(O)O [fructose-1,6-diphosphate]
activation of E. coli Type I pyruvate kinase [3]: very potent activator

B1: alkaline phosphatase: Sigma Type VII from bovine (calf) intestine catalogue number P4502 (protein, UniProt P19111 20-506, looked up)
Intestinal-type alkaline …: LVPVEEEDPAFWNRQAAQALDVAKKLQPIQTAAKNVILFLGDGMGVPTVTATRILKGQMNGKLGPETPLAMDQFPYVALSKTYNVDRQVPDSAGTATAYLCGVKGNYRTIGVSAAARYNQCKTTRGNEVTSVMNRAKKAGKSVGVVTTTRVQHASPAGAYAHTVNRNWYSDADLPADAQMNGCQDIAAQLVNNMDIDVILGGGRKYMFPVGTPDPEYPDDASVNGVRKRKQNLVQAWQAKHQGAQYVWNRTALLQAADDSSVTHLMGLFEPADMKYNVQQDHTKDPTLQEMTEVALRVVSRNPRGFYLFVEGGRIDHGHHDDKAYMALTEAGMFDNAIAKANELTSELDTLILVTADHSHVFSFGGYTLRGTSIFGLAPSKALDSKSYTSILYGNGPGYALGGGSRPDVNDSTSEDPSYQQQAAVPQASETHGGEDVAVFARGPQAHLVHGVEEETFVAHIMAFAGCVEPYTDCNLPAPTTATSIPD
colour change in wells vs alkaline phosphatase concentration [4]: change of colour from pale yellow to black much faster than did those which had been exposed to a lower concentration
